Results reported in PubChem BioAssay AID1996.
Converted amounts (≈) assume the structure as drawn.

Settings: buffer; pH 7.4; 200.0 µM

| solubility kinetic [µg/mL] | SMILES |
| --- | --- |
| 63.2 (≈ 144 µM) | O=C(NCCN1CCOCC1)c1ccc(Cl)c(S(=O)(=O)NCc2ccccc2)c1 |
| > 41.6 | COCC(C)NC(=O)c1cc2cccc([N+](=O)[O-])c2[nH]1 (centres undefined) |
| < 0.4 | Cc1nc(-c2ccccc2)[nH]c(=O)c1Oc1ccc(Cl)cc1Cl |
| 3.3 (≈ 11 µM) | O=C(/C=C/c1cccc(F)c1)NCc1ccc2c(c1)OCO2 |
| 9.4 (≈ 20.1 µM) | COc1ccccc1CNC(=O)c1ccc(NC(=O)CC2SC(N3CCCC3)=NC2=O)cc1 (centres undefined) |
| > 35.9 | c1cncc(-c2csc(-c3cccnc3)n2)c1 |
| 3.6 (≈ 9.61 µM) | Cc1ccc(NC(=O)COC(=O)C2(CC(=O)NC(C)C)CCCC2)cc1C |
| > 39.9 | COC(c1ccccc1)c1nc2ccccc2[nH]c1=O (centres undefined) |
| 0.9 (≈ 2.44 µM) | COc1ccc(N2C(=O)C3C(C2=O)C3(c2ccccc2)c2ccccc2)cc1 (centres undefined) |
| 31.3 (≈ 104 µM) | Cc1[nH]c2ccccc2c1CCNC(=O)c1c(N)no[n+]1[O-] |
| 39.5 (≈ 141 µM) | S=C(NCc1ccc(Cl)cc1)NCc1ccco1 |
| 1.1 (≈ 3.5 µM) | N=c1oc2cc(O)ccc2cc1C(=O)Nc1ccc(Cl)cc1 |
| > 35.7 | COC(=O)C[n+]1cccc2ccccc21.[Cl-] |
| 3.1 (≈ 11.5 µM) | O=C(/C=C/c1ccc([N+](=O)[O-])cc1)/C=C/c1ccco1 |
| > 48 | Cn1c(=O)c(=O)n(C)c2cc([N+](=O)[O-])c(N3CCOCC3)cc21 |
| 7.4 (≈ 24.2 µM) | NC(=O)CN(C/C=C/c1ccccc1)C/C=C/c1ccccc1 |
| > 49.2 | CN(C)CCOC(=O)C(c1ccccc1)C1(O)CCCC1.Cl (centres undefined) |
| > 69.2 | CC(=O)Nc1ccc(C(=O)OCC(=O)Nc2ccc(S(=O)(=O)N3CCOCC3)cc2)cc1 |
| > 48.1 | COc1cc(OC)cc(C(=O)NC(C(=O)N2CCC2)C(C)C)c1 (centres undefined) |
| < 0.4 | CCOc1ccccc1NC(=O)c1oc2ccccc2c1NC(=O)C1CCCO1 (centres undefined) |
| < 0.3 | Cc1nc2nc(SCC(=O)c3ccccc3)[nH]c2cc1Br |
| 38.5 (≈ 133 µM) | CCOc1ccccc1NC(=S)NCc1cccn1C |
| > 36.5 | O=[N+]([O-])c1cnn2cc(Br)cnc12 |
| > 34.4 | Cc1cc(O)cc(=O)n1CCc1ccccc1 |

| solubility kinetic [µg/mL] | SMILES |
| --- | --- |
| > 47.6 | CSc1ccccc1NC(=O)COC(=O)c1cnc(C)cn1 |
| 32.8 (≈ 97.5 µM) | CCOc1cc(CN2CCc3c([nH]c4ccccc34)C2)ccc1OC |
| 4.1 (≈ 12.2 µM) | COc1ccc(C)cc1S(=O)(=O)Nc1ccc2c(c1)OCCO2 |
| > 74.8 | Cc1c(NC(=O)c2ccc(NS(=O)(=O)c3ccc(F)c(F)c3)cc2)c(=O)n(-c2ccccc2)n1C |
| 9.1 (≈ 33.7 µM) | CC(C)c1ccc(-c2csc3nc[nH]c(=O)c23)cc1 |
| 29.8 (≈ 104 µM) | CC(=O)Nc1ccc(S(=O)(=O)N2CCSC2)cc1 |
| 1.1 (≈ 3.93 µM) | COc1ccc(CNc2nc(Cl)c(C#N)s2)cc1 |
| < 0.2 | O=C(Nc1ccccc1)Nc1ccc2ccccc2n1 |
| 48.4 (≈ 147 µM) | NC1=C([N+](=O)[O-])C(c2ccc3c(c2)OCO3)C2=C(CCCC2=O)O1 (centres undefined) |
| 24.8 (≈ 84.3 µM) | Cc1cccc2c1NC(=O)C21OCC(CO)([N+](=O)[O-])CO1 (centres undefined) |
| > 32.6 | Cc1cc(C)nc(Nc2ccc(F)cc2)n1 |
| > 45.7 | CN(C)/C=C/C(=O)c1ccn(S(=O)(=O)c2ccccc2)c1 |
| > 57.4 | CCOc1ccc(N2CC(C(=O)Nc3ccc4c(c3)OCCO4)CC2=O)cc1 (centres undefined) |
| 21.5 (≈ 61.2 µM) | CC1=CCC2C(=O)N(c3ccc(OC(=O)c4ccco4)cc3)C(=O)C2C1 (centres undefined) |
| 44.6 (≈ 150 µM) | O=C(Nc1ccccc1C(=O)NC1CC1)c1ccccc1F |
| 34.2 (≈ 119 µM) | O=[N+]([O-])c1ccccc1S(=O)(=O)N1CCSCC1 |
| > 47.8 | COc1ccc(C(C)=O)cc1CN1C(=O)NC(CC(C)C)C1=O (centres undefined) |
| > 48.1 | CC(C)C(=O)NS(=O)(=O)c1ccc(NS(C)(=O)=O)cc1 |
| 7.7 (≈ 22.6 µM) | O=C(c1ccc(Oc2cc(Cl)cc(Cl)c2)o1)N1CCCCC1 |
| 5.4 (≈ 18.6 µM) | Cc1cccc(C(=O)Nc2ccnc(-c3cccnc3)n2)c1 |
| > 73 | CCn1c(C)nc2cc(C(=O)NNC(=O)CN(C)S(=O)(=O)c3ccc(NC(C)=O)cc3)ccc21 |
| 5 (≈ 16.8 µM) | COc1cc2ccccc2cc1C(=O)NC1CCC(C)CC1 (centres undefined) |
| > 39.1 | Cc1cccc2c1NC(=O)C2(O)N1CCCC(C)C1 (centres undefined) |
| 31.6 (≈ 124 µM) | CNC(=O)COC(=O)CCC(=O)c1cccs1 |

| solubility kinetic [µg/mL] | SMILES |
| --- | --- |
| 51 (≈ 149 µM) | CN1CCN(C(=S)NC(=O)c2ccc(Br)cc2)CC1 |
| 6.1 (≈ 17 µM) | CCOC(=O)c1sc(CS(=O)(=O)c2ccc(Cl)cc2)nc1C |
| 44.2 (≈ 148 µM) | O=C1CN(C(=O)/C=C/c2ccc(Cl)cc2Cl)CCN1 |
| 1.6 (≈ 5.4 µM) | Cc1cc(NC(=O)CC2CCCC2)ccc1Br |
| 52.4 (≈ 137 µM) | O=C(CN1C(=O)C(=O)N(Cc2ccco2)C1=O)Nc1ccc(F)c(F)c1F |
| 22.5 (≈ 74.2 µM) | O=c1[nH]c2ccc(S(=O)(=O)NCc3ccccc3)cc2[nH]1 |
| 43.2 (≈ 137 µM) | CCC(=O)Nc1ccc2c(c1)nc(CCN1CCCCC1)n2C |
| 27.6 (≈ 103 µM) | CC1CC1C(=O)OCC(=O)Nc1ccc(Cl)cn1 (centres undefined) |
| 10.8 (≈ 32.5 µM) | Nc1cc(S(=O)(=O)N2CCCCC2)ccc1Oc1ccccc1 |
| > 43.7 | CC(=O)N[C@@H](Cc1ccc(OC(F)(F)F)cc1)C(=O)O |
| > 38 | OC(CN1CCc2ccccc2C1)c1ccccc1 (centres undefined) |
| 1.7 (≈ 6.48 µM) | CC(=O)c1ccc2c(c1)c(C#N)c1ccccc1[n+]2[O-] |
| > 46.1 | CNC(=O)c1cc(C(=O)c2ccccc2Br)c[nH]1 |
| > 38.8 | CSc1ccccc1C(=O)NCc1cccnc1 |
| > 36.3 | c1ccc(SCc2cn3cccnc3n2)nc1 |
| 51.3 (≈ 130 µM) | CCC1CCCCN1Cc1c(O)ccc2c(=O)c(-c3ccccc3OC)coc12 (centres undefined) |
| > 52.3 | CCOc1ccc(C(=O)NCC(=O)N2CCC(C)CC2)cc1OCC |
| 10.1 (≈ 31 µM) | COc1cc2ncnc(Nc3ccc4c(c3)OCO4)c2cc1OC |
| 6.7 (≈ 17.3 µM) | CSc1ccccc1NC(=O)CN(C)CC(=O)c1[nH]c(C)c(C(C)=O)c1C |
| 8.7 (≈ 26.9 µM) | CC(OC(=O)c1cccc(Cl)c1)C(=O)NC1CCCCC1C (centres undefined) |
| > 42.9 | CC(=O)CCN1C(=O)NC2(CCCc3ccccc32)C1=O (centres undefined) |
| 51.2 (≈ 141 µM) | O=C(CN1CCN(c2ccc(F)cc2)CC1)NCc1ccc(Cl)cc1 |
| 6.6 (≈ 17.3 µM) | O=S(=O)(c1ccccc1)N1CCN(Cc2c(O)ccc3ccccc23)CC1 |
| 2.3 (≈ 6.7 µM) | CCc1noc(C)c1C(=O)Nc1nc(-c2ccc(OC)cc2)cs1 |

| solubility kinetic [µg/mL] | SMILES |
| --- | --- |
| 2.4 (≈ 8.65 µM) | CCc1ccc(NC2=CC(=O)C(=O)c3ccccc32)cc1 |
| > 48.3 | Cn1nc(-c2ccc(Cl)cc2)cc1NC(=O)CCCC(=O)O |
| > 42.5 | COc1ccc(CN2C(=O)c3ccccc3C2OC)cc1 (centres undefined) |
| > 41.9 | O=C(COC(=O)CC1CCCC1)Nc1cccc(F)c1 |
| 16.5 (≈ 45.9 µM) | O=C(c1ccc(Br)cc1)N(c1ccccn1)C1CCCCC1 |
| 20.8 (≈ 64.6 µM) | O=C(COC(=O)Cc1ccc(Cl)cc1)Nc1ccccc1F |
| 28.3 (≈ 85.9 µM) | COc1cccc(OC)c1C(=O)NCCOc1cc(C)cc(C)c1 |
| 37.2 (≈ 146 µM) | O=C(Nc1ncc([N+](=O)[O-])s1)c1cccs1 |
| 11.8 (≈ 35.5 µM) | N#Cc1ccc(OS(=O)(=O)c2ccc(-c3ccon3)s2)cc1 |
| 1.6 (≈ 5.44 µM) | Cc1ccc(NC(=S)NC(=O)c2cccs2)cc1F |
| > 38.9 | COc1ccc(NC(=O)CC(C)n2ccnc2)cc1 (centres undefined) |
| 42.6 (≈ 142 µM) | O=C1C2C3C=CC(C4CC34)C2C(=O)N1c1cc(Cl)ccn1 (centres undefined) |
| 38.8 (≈ 112 µM) | CC1CC(C)(C)NC(=S)N1CCC(=O)N1CCc2ccccc2C1 (centres undefined) |
| 4.6 (≈ 14.1 µM) | O=C(COC(=O)c1ccccc1O)NC1CCCc2ccccc21 (centres undefined) |
| 36.4 (≈ 115 µM) | COc1ccc(NC(=O)C2(c3cccs3)CCOCC2)cc1 |
| > 52.9 | CC(=O)C1=C(O)C(=O)N(Cc2ccccc2)C1c1cccc([N+](=O)[O-])c1 (centres undefined) |
| > 41.5 | Cc1cc(Cl)ccc1OCC(=O)Nc1ccncc1 |
| 0.3 (≈ 0.916 µM) | COc1ccccc1-n1cc(-c2ccc([N+](=O)[O-])cc2)[nH]c1=S |
| 35.9 (≈ 132 µM) | CCN1CCN(c2oc(-c3ccco3)nc2C#N)CC1 |
| > 40 | Nc1cc(N)nc(SCc2ccc(Cl)cc2)n1 |
| > 46.6 | Cc1ccccc1CNS(=O)(=O)c1csc(C(N)=O)c1 |
| > 34.7 | O=C(N/N=C/c1cccnc1)c1cccs1 |
| 8.1 (≈ 26.6 µM) | CC(C)(CNc1ccc([N+](=O)[O-])cc1C#N)N1CCOCC1 |
| 46.4 (≈ 139 µM) | O=C(O)c1c(N2CCCCC2)ccc([N+](=O)[O-])c1N1CCCCC1 |

| solubility kinetic [µg/mL] | SMILES |
| --- | --- |
| 42.1 (≈ 149 µM) | O=C(/C=C/c1ccc2c(c1)OCO2)NCc1ccncc1 |
| 1 (≈ 2.83 µM) | CC(=O)Nc1ccc(NC(=O)COc2ccc(Cl)cc2Cl)cc1 |
| > 47.6 | Cc1[nH]c(=O)[nH]c(=O)c1S(=O)(=O)Nc1ccc(F)cc1F |
| 44.7 (≈ 137 µM) | CCN(CC(=O)N1CCCC1)S(=O)(=O)c1ccc(OC)cc1 |
| 5.9 (≈ 20.1 µM) | O=C(COC(=O)CCC1CCCC1)Nc1ccc(F)cc1 |
| 36.8 (≈ 129 µM) | Cc1ccccc1CNC(=O)C1CCC(=O)N(C2CC2)C1 (centres undefined) |
| > 49.1 | O=C(CSc1ncccn1)N1CCC(Cc2ccccc2)CC1 |
| 21.9 (≈ 66.5 µM) | O=C(COC(=O)c1ccc(O)cc1)Nc1ccc2c(c1)OCCO2 |
| 5.5 (≈ 16.3 µM) | Cc1cccc(NC(=O)CCS(=O)(=O)c2ccc(Cl)cc2)c1 |
| > 61.3 | O=C(O)C(Cc1ccccc1)N=C(NS(=O)(=O)c1ccccc1)c1ccccc1 (centres undefined) |
| > 30.2 | Cc1nc(N=C(N)N)nc2ccccc12 |
| > 64.3 | COc1ccc(NC(=O)c2c(F)cccc2Cl)cc1S(=O)(=O)N1CCOCC1 |
| 33.7 (≈ 133 µM) | CC1CCN(CCC(=O)Nc2nccs2)CC1 |
| > 29.4 | COc1ccc(/C(N)=N/O)c(OC)c1 |
| > 29.1 | CN(C)C(=O)N1CCNCC1.Cl |
| > 45.5 | O=C(O)c1ccn(CSc2cc(Cl)ccc2Cl)n1 |
| 18.3 (≈ 46.4 µM) | COc1cc2ccccc2cc1C(=O)NC(=S)Nc1cccc(C(=O)O)c1C |
| 17.2 (≈ 51.7 µM) | O=C(CCC(=O)NC12CC3CC(CC(C3)C1)C2)NC1CCCCC1 |
| 3.1 (≈ 11.5 µM) | Oc1c(Cl)cc(Cl)cc1CNc1ccccn1 |
| 31.4 (≈ 88.7 µM) | CCNC(=S)N1CCN(S(=O)(=O)c2ccc(Cl)s2)CC1 |

| SMILES | solubility kinetic [µg/mL] |
| --- | --- |
| CN1CCN(c2ncnc3nc[nH]c23)CC1 | 28.8 (≈ 132 µM) |
| O=C1CC(c2ccccc2)CN1 (centres undefined) | > 24.2 |
| Cc1ccc(C)c(OCCCCN2CCNCC2)c1C.O=C(O)C(=O)O | > 55 |
